Measured values reported in patent publication US4921855A, “New Histidyl amino acid derivatives, and pharmaceutical composition comprising the same” (Fujisawa Pharmaceutical Co., Ltd., priority 1987, dated 1990).

Tests used:
renin = target: T1, renin (Homo sapiens, UniProt P00797); assay: Inhibition of human plasma renin activity (angiotensin I formation, RIA); type: biochemical; details: endogenous renin and angiotensinogen, pH 6.0, 37° C, 90 minutes, RIA of Ang I
T1 construct: endogenous renin and angiotensinogen in plasma; from tissue; host or cells: pooled human plasma (EDTA) from male volunteers
T1 sequence (P00797 67-406): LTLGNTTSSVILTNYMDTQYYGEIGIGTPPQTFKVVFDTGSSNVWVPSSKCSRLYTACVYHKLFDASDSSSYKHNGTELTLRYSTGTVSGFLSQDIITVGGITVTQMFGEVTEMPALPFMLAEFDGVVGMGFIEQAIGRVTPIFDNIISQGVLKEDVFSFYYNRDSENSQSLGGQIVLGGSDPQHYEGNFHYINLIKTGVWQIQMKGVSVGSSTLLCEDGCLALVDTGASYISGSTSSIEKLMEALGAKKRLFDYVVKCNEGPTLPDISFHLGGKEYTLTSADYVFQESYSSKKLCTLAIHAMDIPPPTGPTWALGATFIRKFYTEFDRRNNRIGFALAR
Experimental: Human plasma was collected from male volunteers pretreated with no drugs and used as a pool. Disodium salt of ethylenediaminetetraacetic acid (EDTA) was used as the anticoagulant. Plasma renin activity was measured as the rate of angiotensin I (Ang I) formation after incubation (37° C) of the endogenous renin and angiotensinogen in plasma at pH 6.0. The incubation mixture contained 250 μl of plasma, 5 μl of (phenylmethyl)sulfonyl fluoride, 30 μl of buffer (sodium, potassium-phosphate, pH 6.0), and 15 μl of an appropriate concentration of test compound in 50% ethyl alcohol-water vehicle. The Ang I formed after 90 minutes of incubation was measured by radioimmunoassay (RIA) which was carried out with a commercial kit, RENCTK 100 (manufactured by Commissariat A L'energic Atomique). Samples were incubated in duplicate and each tube was measured in duplicate in the RIA. Percentage inhibition of plasma renin activity was calculated by comparing the amount of Ang I produced with and without a test compound. The concentration of test compound that inhibited plasma renin activity by 50% (IC50) was determined by Probit method.

[1] = test system: mean arterial blood pressure (MAP); assay: Hypotensive effect after oral administration to conscious sodium-depleted cynomolgus monkeys (maximum percentage fall of MAP); type: in vivo, cynomolgus monkeys (Macaca fascicularis); details: 0-6 hours
Experimental: (§1) Male or female cynomolgus monkeys (Macaca fascicularis) weighing about 2.5-3.5 kg were used. Sodium depletion was achieved by administering furosemide, 15 mg/kg subcutaneously one day before and then 10 mg/kg intravenously 30 minutes before the administration of the test compound.
(§2) Test compounds were dissolved in diluted equimolar hydrochloric acid (pH 5-6) and orally administered to conscious and trained monkeys placed in restraining chairs with pneumatic cuff positioned around the arm for oscillometric measurement of mean arterial blood pressure (MAP) (Model BP-203 NPJ, manufactured by Nippon Colin).
The Map was measured at 0 (predosing base line), 0.5, 1, 2, 3, 4 and 6 hours after administration of the test compound. The maximum hypotensive effect was calculated as the maximum percentage fall of MAP from the pretreatment value.

plasma renin = assay: Inhibition of plasma renin activity (PRA) after oral administration to sodium-depleted cynomolgus monkeys; type: in vivo, cynomolgus monkeys (Macaca fascicularis); details: sodium-depleted conscious monkeys, 0-6 hours
Experimental: as §1, §2
Blood samples were collected at 0, 0.5, 1, 2, 4 and 6 hours after dosing from the antecubital vein of the monkey into disodium salt of EDTA coated tubes, centrifuged for 10 min. (3000 rpm, 4° C.) and plasma was obtained for determination of plasma renin activity (PRA). PRA was measured as the rate of Ang I formation with the same principle as illustrated in Test 1. 100 μl of sample plasma was mixed with 100 μl of the solution of angiotensinase inhibitors (3 mM 8-hydroxyquinoline sulfate and 5 mM 2,3-dimercaptopropanol, SB-REN-1, SORIN BIOMEDICA, Italy). Half (100 μl) of the mixture was incubated at 37° C. for one hour and Ang I formed was determined by a commercial RIA kit (DINABOTT). The remaining half (100 μl) of the reaction mixture was kept at 4° C. for one hour to measure and correct for the preexisting Ang I in the plasma. Percentage inhibition of PRA was calculated by the following formula: [formula]
A37 : the amount of angiotensin I formed by incubation at 37° C. of plasma collected before dosing the test compound
A4 : the amount of angiotensin I formed by keeping at 4° C. of plasma collected before dosing the test compound
D37 : the amount of angiotensin I formed by incubation at 37° C. of plasma collected after dosing the test compound
D4 : the amount of angiotensin I formed by keeping at 4° C. of plasma collected after dosing the test compound.

Row | SMILES | IC50 (renin) [nM] | Maximum hypotensive effect (%) ([1]; 32 mg/kg (po)) | Maximum inhibition of PRA (%) (plasma renin; 32 mg/kg (po)) | Maximum hypotensive effect (%) ([1]; 3.2 mg/kg (po)) | Maximum inhibition of PRA (%) (plasma renin; 3.2 mg/kg (po))
1 | CC(C)CC[C@H](O)[C@H](CC1CCCCC1)NC(=O)[C@H](Cc1c[nH]cn1)N(C)C(=O)[C@H](Cc1ccccc1)OC(=O)N(C)CCC(=O)N1CCOCC1 [(5)] | 25 | 18 | 92 |  | 
2 | CC(C)CC[C@H](O)[C@H](CC1CCCCC1)NC(=O)[C@H](Cc1c[nH]cn1)N(C)C(=O)[C@H](Cc1ccccc1)OC(=O)N(C)CCN(C)C(=O)N1CCOCC1 [(23)] | 4 |  |  | 19 | 99
3 | CC(C)CC[C@H](O)[C@H](CC1CCCCC1)NC(=O)[C@H](Cc1c[nH]cn1)N(C)C(=O)[C@H](Cc1ccccc1)OC(=O)N(C)CCN(C)C(=O)C(C)C [(24)] | 8.7 |  |  | 15 | 93
